pIC50: −log10 of the molar value. Like-named read-outs stand apart in the source and are kept apart here.
Experiments:
LTD4 receptor = biological target: T1, LTD4 receptor (Cavia porcellus, UniProt Q2NNR5); experiment: LTD4 receptor binding assay using guinea pig lung membrane preparations; conditions: for Receptor Binding LTD4 IC50: Table 1, results are from Table 3, 10^-5 M
T1 construct: from tissue; host or cells: lung membranes of male Hartley guinea pigs
T1 sequence (Q2NNR5 1-340): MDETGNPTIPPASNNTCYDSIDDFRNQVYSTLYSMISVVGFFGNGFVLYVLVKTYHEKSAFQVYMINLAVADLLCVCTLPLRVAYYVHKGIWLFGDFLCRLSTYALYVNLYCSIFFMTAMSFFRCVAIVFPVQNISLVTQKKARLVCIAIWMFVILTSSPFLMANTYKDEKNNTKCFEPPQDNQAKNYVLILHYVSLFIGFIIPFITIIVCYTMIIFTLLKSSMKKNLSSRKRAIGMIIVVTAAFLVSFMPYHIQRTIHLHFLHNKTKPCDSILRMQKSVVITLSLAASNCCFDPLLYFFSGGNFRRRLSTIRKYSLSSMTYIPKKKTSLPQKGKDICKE
Procedure: MEMBRANE PREPARATIONS: For each membrane preparation, 10-11 male Hartley guinea pigs, weighing less than 350 gm, were sacrificed by guillotine. The lungs were rapidly removed and placed in ice-cold 50 mM Trisma 7.0 buffer. After all the lungs were collected, each was probed free of bronchial tissue to at least the level of tertiary branching as observed through a dissecting lamp. The tissue was minced with a razor blade on a damp paper towel and placed into fresh ice-cold Trisma 7.0 buffer. When all the tissues had been processed, they were pooled, drained and weighed. Nine volumes of cold buffer were added and the tissue was polytroned for 6-10 second bursts with a 1 minute cool down period in an ice bath between each burst. The homogenate was filtered through a gauze pad and centrifuged at 1085× g for 15 minutes at 4° C. Supernatants were saved and centrifuged at 40,000× g for 20 minutes at 4° C. This time, supernatants were discarded and the pellets were resuspended in 30-35 ml fresh Trisma 7.0 buffer by 1-10 second bursts with the polytron. The materials were centrifuged again at 40,000× g. Supernatants were again discarded. Each pellet was resuspended again with approximately 7 ml buffer. All this material was pooled into a 100 ml polypropylene container and stirred with a magnetic stirring bar. The tubes were rinsed with small amounts of buffer and the rinse was added to the membrane preparation. The homogenized membranes were aliquoted into 1.5 ml microfuge tubes and frozen at -70° C. Three aliquots were submitted for protein determinations by FPB (fluorescamine protein binding) assay.
Unless otherwise indicated, all binding experiments were performed in a final incubation volume of 250 μl. […] Both materials were received in solutions. […] Both solutions were brought to appropriate assay concentrations by dilution in assay buffer consisting of 50 mM Trisma 7.4 with 5 mM L-cysteine and 20 mM CaCl2. Membranes were also diluted with this assay buffer. […] Diluent was added to all other appropriate control tubes. Incubations were conducted for 30 minutes at 25° C. in a shaking water bath. Termination of the reaction was achieved by pouring the incubate over 2.5 cm Whatman GF/C filters soaked in assay buffer and set over the ports of Millipore filter vacuum manifolds. Filters were rinsed with 4 ml ice cold assay buffer 3 times. The filters were removed, placed in 10 ml Aquasol scintillation cocktail and allowed to cool in the dark for 2 hours prior to counting. All samples were corrected for background and isotope decay before converting DPM determination to mass.
These values were logit-transformed and linear regression was performed on the dose-response data. All dose-response sets used to calculate IC50 values contained data from 3-6 compound concentrations. […] IC50 values were calculated from the regression equation for the line.
male guinea pig lung homogenate which was aliquoted and stored at
-70° C. The particular preparation used to test the compounds of
Protein concentrations in these assays were adjusted
to provide aproximately 0.1 nM receptor in the presence of lnM ^3
HLTD4. Incubation was conducted for 30 min.
at 24° C. and filtration methods were used to separate bound from
tested were intially solubilized in DMSO. Each compound was evaluated at
dose of 10 μM (10^-5 M) in triplicate in 2 separate assays. The

LTB4 receptor = biological target: T2, LTB4 receptor (Homo sapiens, UniProt Q15722); experiment: LTB4 receptor binding assay ((3H) LTB4, human neutrophils); conditions: Table 1
T2 construct: Neutrophils were purified from venous blood of normal human donors; endogenous in cells; host or cells: purified human blood neutrophils (intact cells)
T2 sequence (Q15722 whole entry): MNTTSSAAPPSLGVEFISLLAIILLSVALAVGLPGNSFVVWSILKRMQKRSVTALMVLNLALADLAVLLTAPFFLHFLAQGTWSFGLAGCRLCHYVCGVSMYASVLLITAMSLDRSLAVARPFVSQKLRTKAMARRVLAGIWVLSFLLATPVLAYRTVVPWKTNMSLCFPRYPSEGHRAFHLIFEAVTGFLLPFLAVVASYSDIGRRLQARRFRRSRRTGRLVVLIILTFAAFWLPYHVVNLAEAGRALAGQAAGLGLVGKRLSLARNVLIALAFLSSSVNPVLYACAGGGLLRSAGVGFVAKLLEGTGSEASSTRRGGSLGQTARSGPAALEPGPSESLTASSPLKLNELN
Procedure: Neutrophils (4-6×10^6) in 1 ml Hanks' balanced salt solution containing 10 mM HEPES buffer (HBSS), pH 7.4 and 30 μM nordihydroguaiaretic acid were incubated with 0.6×10^-9 M (^3 H) LTB4 in the presence or absence of test compounds. The incubation was carried out at 0° C. for 45 minutes and terminated by adding 5 ml of ice-cold HBSS followed by rapid filtration of incubation mixture under vacuum through GF/C glass fiber filters. The filters were further washed with 10 ml HBSS and radioactivity was determined. Specific binding was defined as the difference between total binding and nonspecific binding which was not displaced by 10^-7 M unlabeled LTB4. All data refer to specific binding.

human neutrophils [1] = experiment: Modified Boyden chamber chemotaxis (LTB4, human neutrophils); type: cell-based; conditions: Neutrophil; for inhibition at 1 µM: 10^-6 M
Procedure: Human neutrophils were isolated from citrated peripheral blood using standard techniques of dextran sedimentation, followed by centrifugation on Histopaque® sterile solution (Sigma) or Ficoll-paque® (Pharmacia) and hypotonic lysis of erythrocytes. A final cell suspension of 3.4×10^6 neutrophils/ml of HEPES-buffered Hanks balanced salt solution (HBSS, pH 7.3) was added to the upper well (0.8 ml) of a modified Boyden chamber (blind well). The lower well (0.2 ml), separated by a polycarbonate membrane (Nuleopore Corp.), contained HBSS or 3×10^-8 M LTB4 in the presence of absence of test compound. Following a 90 minute incubation at 37° C. in 5% CO2 -95% air, cells from the lower well were lysed and nuclei counted in a Model S-Plus-IV Coulter Counter. Percent inhibition was calculated from cell counts corrected for random migration by subtracting the mean of the HBSS control.

human neutrophils [2] = experiment: Human neutrophil degranulation assay (LTB4-induced, myeloperoxidase release); type: cell-based; conditions: Table 1, LTB4 (5×10^-8 M)
Procedure: Neutrophils were purified from venous blood of normal human donors using standard techniques of dextran sedimentation, centrifugation on Ficoll-paque® (Pharmacia) or Histopaque® sterile solution (Sigma) and hypotonic lysis of erythrocytes (Boyum, A., Isolation of Leukocytes From Human Blood: Further Observations. Scand. J. Lab. Clin. Invest., 21 (Suppl. 97): 31, 1968). The purity of isolated neutrophils was >95%.
Neutrophil degranulation was determined by measuring the release of myeloperoxidase activity into the incubation medium. Neutrophils (3×10^6) in 1 ml HBSS solution were preincubated with cytochalasin B (5 μg) at 37° C. for 5 minutes, followed by preincubation with test compounds for 7 minutes. Neutrophils were then incubated for 2 to 20 minutes with either LTB4 (5×10^-8 M) or the chemotactic peptide f-met-leu-phe (5×10^-6 M) to induce degranulation. Following incubation, samples were centrifuged and myeloperoxidase was extracted from the cell pellets by sonication in phosphate buffer containing 0.4% Triton X-100. Triton X-100 was also added to the supernatants to a concentration of 0.4%. The supernatants and the pellet - extracts were then assayed spectrophotometrically for myeloperoxidase activity by determining the rate of decomposition of H2 O2 with o-dianisidine as hydrogen donor as described by Renlund, et al. (Renlund, D. G., MacFarlane, J. L., Christensen, R. D., Lynch, R. E., and Rothstein, G., A Quantitative And Sensitive Method For Measurement Of Myeloperoxidase, Clinical Research 28:75A, 1980). Myeloperoxidase activity released into the supernatant was expressed as the percent of the average total activity (pellet plus supernatant).

[3] = read-out: Chemotaxis (Boyden) percent inhibition
[4] = read-out: LTD4 Receptor Binding Activity, 10 μM
[5] = read-out: LTD4 Receptor Binding Percent Inhibition, Test #1, 10 μM, triplicate, 30 min, 24° C.
[6] = read-out: LTD4 Receptor Binding Percent Inhibition, Test #2, 10 μM, triplicate, 30 min, 24° C.

pIC50 (LTB4 receptor) | pIC50 (human neutrophils [2]) | pIC50 (human neutrophils [1]) | SMILES | inhibition at 1 µM (human neutrophils [1]; [3]) [%] | further results
– | – | – | CCCc1c(OCC(O)COc2ccc3c(=O)cc(C(=O)O)oc3c2CCC)ccc(C(C)=O)c1O (stereo not drawn) [FPL 55712, reference compound] | – | pIC50 (LTD4 receptor): 4.98; inhibition at 10 µM (LTD4 receptor; read-out: LTD4 Receptor Binding Activity): > 45%; inhibition at 10 µM (LTD4 receptor; read-out: LTD4 Receptor Binding Percent Inhibition, Test #1): 54.7%; inhibition at 10 µM (LTD4 receptor; read-out: LTD4 Receptor Binding Percent Inhibition, Test #2): 47%
5.74 | – | – | CCCc1c(OCCCOc2ccc(C(C)=O)c(OC)c2CCC)ccc2c1OC(C(=O)NC)CC2 (stereo not drawn) [Example 8, 7-[3-(4-acetyl-3-methoxy-2-propylphenoxy)propoxy]-3,4-dihydro-N-methyl-8-propyl-2H-1-benzopyran-2-carboxamide] | 12 | –
6.00 | – | – | CCCc1c(OCCCOc2ccc(C(C)=O)c(OCC)c2CCC)ccc2c1OC(C(=O)O)CC2 (stereo not drawn) [Example 21, 7-[3-(4-acetyl-3-ethoxy-2-propylphenoxy)-propoxy]-3,4-dihydro-8-propyl-2H-1-benzopyran-2-carboxylic acid] | – | –
6.10 | 5.68 | – | CCCc1c(OCC#CCOc2ccc3c(c2CCC)OC(C)(CCC(=O)O)CC3=O)ccc(C(C)=O)c1OC (stereo not drawn) [Example 17] | 31 | –
5.59 | 5.10 | – | CCCc1c(OCCCOc2ccc3c(c2)OC(C(=O)O)CC3)ccc(C(C)=O)c1OC (stereo not drawn) [Example 6, 7-[3-(4-acetyl-3-methoxy-2-propylphenoxy)propoxy]-3,4-dihydro-2H-1-benzopyran-2-carboxylic acid] | 48 | Receptor Binding LTD4 IC50 (LTD4 receptor): Inactive; inhibition at 10 µM (LTD4 receptor; [4]): < 45%; inhibition at 10 µM (LTD4 receptor; [5]): 1.63%; inhibition at 10 µM (LTD4 receptor; [6]): 26%
5.92 | 5.30 | – | CCCc1c(OCCCOc2ccc(C(=O)C(C)C)c(OC)c2CCC)ccc2c1OC(C(=O)O)CC2 (stereo not drawn) [Example 19, 3,4-dihydro-7-[3-[3-methoxy-4-(2-methyl-1-oxopropyl)-2-propylphenoxy]propoxy]-8-propyl-2H-1-benzopyran-2-carboxylic acid] | 15 | –
6.43 | 5.59 | – | CCCc1c(OCCCOc2ccc(C(C)=O)c(OC)c2CCC)ccc2c1CC(C(=O)O)CC2 (stereo not drawn) [Example 18, 7-[3-(4-acetyl-3-methoxy-2-propylphenoxy)propoxy]-1,2,3,4-tetrahydro-8-propyl-2-naphthalenecarboxylic acid] | – | inhibition at 10 µM (human neutrophils [1]; 10^-5 M, read-out: Chemotaxis (Boyden) percent inhibition): 87%
6.30 | 5.80 | 5.92 | CCCc1c(OCCCOc2ccc3c(=O)cc(CCC(=O)O)oc3c2CCC)ccc(C(C)=O)c1OC [Example 22, 7-[3-(4-acetyl-3-methoxy-2-propylphenoxy)propoxy]-4-oxo-8-propyl-4H-1-benzopyran-2-propanoic acid] | – | –
7.00 | 6.40 | 6.30 | C=CCc1c(OCCCOc2ccc3c(c2CCC)OC(C(=O)O)CC3)ccc(C(C)=O)c1OC (stereo not drawn) [Example 5, 7-[3-[4-acetyl-3-methoxy-2-(2-propenyl)phenoxy]propoxy]-3,4-dihydro-8-propyl-2H-1-benzopyran-2-carboxylic acid] | – | –
5.30 | 5.57 | – | CCCc1c(OC2CCC(Oc3ccc(C(C)=O)c(OC)c3CCC)C2)ccc2c1OC(C(=O)O)CC2 (stereo not drawn) [Example 4, 7-[[3-(4-acetyl-3-methoxy-2-propylphenoxy)cyclopentyl]oxy]-3,4-dihydro-8-propyl-2H-1-benzopyran-2-carboxylic acid] | – | inhibition at 0.01 µM (human neutrophils [1]; 10^-8 M, read-out: Chemotaxis (Boyden) percent inhibition): 62%
6.60 | 6.26 | 6.19 | CCCc1c(OCCCOc2ccc3c(c2CCC)OC(C)(CCC(=O)O)CC3=O)ccc(C(C)=O)c1OC (stereo not drawn) [Example 16, 7-[3-(4-acetyl-3-methoxy-2-propylphenoxy)propoxy]-3,4-dihydro-2-methyl-4-oxo-8-propyl-2H-1-benzopyran-2-propanoic acid] | – | Receptor Binding LTD4 IC50 (LTD4 receptor): Inactive; inhibition at 10 µM (LTD4 receptor; [4]): < 45%; inhibition at 10 µM (LTD4 receptor; [5]): 16.5%; inhibition at 10 µM (LTD4 receptor; [6]): 24.1%
6.72 | 6.74 | 6.70 | CCCc1c(OCCCOc2ccc(C(C)=O)c(OC)c2CC2CC2)ccc2c1OC(C(=O)O)CC2 (stereo not drawn) [Example 3, 7-[3-[4-acetyl-2-(cyclopropylmethyl)-3-methoxyphenoxy]propoxy]-3,4-dihydro-8-propyl-2H-1-benzopyran-2-carboxylic acid] | – | –

Source: US4889871A, “Alkoxy-substituted dihydrobenzopyran-2-carboxylate derivatives” (G. D. Searle & Co., priority 1988, dated 1989)
